pIC50: −log10 of the molar value.

Broadly, the pIC50 is −log10 of the IC50, conventionally taken in molar units.

This assay deals with ALK5 (Homo sapiens (Human), UniProt P36897). As to the kind of experiment: Cell-free assay for inhibition of ALK5 kinase phosphorylation. It counts as biochemical. To be noted: read-out: IC50 on ALK5 kinase phosphorylation.
Chain of ALK5 (P36897 34-503): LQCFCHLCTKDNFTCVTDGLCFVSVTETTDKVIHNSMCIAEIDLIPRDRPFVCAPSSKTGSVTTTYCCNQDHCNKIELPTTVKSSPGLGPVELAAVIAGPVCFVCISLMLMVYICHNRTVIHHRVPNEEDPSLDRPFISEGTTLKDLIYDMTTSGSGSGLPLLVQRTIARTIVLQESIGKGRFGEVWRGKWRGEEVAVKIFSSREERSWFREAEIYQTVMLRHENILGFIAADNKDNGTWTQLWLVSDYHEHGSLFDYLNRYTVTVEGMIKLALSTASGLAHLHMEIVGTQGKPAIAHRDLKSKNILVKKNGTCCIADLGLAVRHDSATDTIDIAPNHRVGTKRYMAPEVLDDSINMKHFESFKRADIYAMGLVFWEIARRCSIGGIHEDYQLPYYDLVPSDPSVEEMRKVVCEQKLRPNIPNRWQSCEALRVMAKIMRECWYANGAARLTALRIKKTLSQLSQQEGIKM
Procedure: ALK5 protein was expressed in Sf9 insect cells as human recombinant GST-fusion protein using the baculovirus expression system. Expressed protein was purified by affinity chromatography using GSH-agarose (Sigma-Aldrich). Kinase assay was performed in 96-well FlashPlates™ from Perkin Elmer (Boston, Mass., USA) in a 50 μL reaction volume. The reaction cocktail was pipetted in four steps in the following order: 20 μL of assay buffer (standard buffer), 5 μL of ATP solution in H2O, 5 μL of each test compounds of formula (I) in 10% DMSO, 10 μL of GSK3 (14-27) (200 ng)/10 μL of ALK5 solution (1 ng) (premixed). The reaction cocktail contained 60 mM HEPES-NaOH, pH 7.5, 3 mM MgCl2, 3 mM MnCl2, 3 Na3VO4, 1.2 mM DTT, 50 μg/mL PEG20000, 1 μM [γ-^33P]-ATP (approximately 2.5×10^5 cpm per well), 200 ng/10 μL GSK3 (14-27), and 1 ng/10 μL ALK5. The reaction cocktail was incubated at 30° C. for 60 min. The reaction was stopped with 50 μL of 2% (v/v) H3PO4, and plates were aspirated and washed two times with 200 μL 0.9% (w/v) NaCl. Assay was performed with a BeckmanCoulter Biomek 2000 robotic system. Incorporation of ^33Pi (counting of “cpm”) was determined with a microplate scintillation counter (Microbeta, Wallac).
Turning to `CC(=O)c1cccc(NCc2nc(-c3ccc4ncnn4c3)c(-c3cccc(C)n3)[nH]2)c1` [Example 70, 1-(3-((4-([1,2,4]triazolo[1,5-a]pyridin-6-yl)-5-(6-methylpyridin-2-yl)-1H-imidazol-2-yl)methylamino)phenyl)ethanone], the negative logarithm of the IC50 (pIC50) was 7.89.
Turning to `CCc1cccc(-c2[nH]c(CNc3ccccc3F)nc2-c2ccc3ncnn3c2)n1` [Example 139, N-((4-([1,2,4]triazolo[1,5-a]pyridin-6-yl)-5-(6-ethylpyridin-2-yl)-1H-imidazol-2-yl)methyl)-2-fluoroaniline], the negative logarithm of the IC50 (pIC50) was 7.63.
To `Cc1cccc(-c2[nH]c(CNc3cccc(OC(F)(F)F)c3)nc2-c2ccc3ncnn3c2)n1` [Example 52, N-((4-([1,2,4]triazolo[1,5-a]pyridin-6-yl)-5-(6-methylpyridin-2-yl)-1H-imidazol-2-yl)methyl)-3-(trifluoromethoxy)aniline] belongs 7.63; to `Cc1cccc(-c2[nH]c(CNc3cccc(C#N)c3C#N)nc2-c2ccc3ncnn3c2)n1` [Example 64, 3-((4-([1,2,4]triazolo[1,5-a]pyridin-6-yl)-5-(6-methylpyridin-2-yl)-1H-imidazol-2-yl)methylamino)phthalonitrile], 7.69.
Consider `Cc1cccc(-c2[nH]c(CNc3ccccc3C)nc2-c2ccc3ncnn3c2)n1` [Example 23, N-((4-([1,2,4]triazolo[1,5-a]pyridin-6-yl)-5-(6-methylpyridin-2-yl)-1H-imidazol-2-yl)methyl)-2-methylaniline], for which the pIC50 was 7.86.
For the compound `Cc1cccc(-c2[nH]c(CNc3cccc(C#N)c3)nc2-c2ccc3ncnn3c2)n1` [Example 60, 3-((4-([1,2,4]triazolo[1,5-a]pyridin-6-yl)-5-(6-methylpyridin-2-yl)-1H-imidazol-2-yl)methylamino)benzonitrile], the negative-log IC50 (pIC50) is 8.32.
As for `Cc1cccc(-c2[nH]c(CN(C)c3cccc(C(N)=O)c3)nc2-c2ccc3ncnn3c2)n1` [Example 142], the figure is 6.82.
As for `Cc1cccc(-c2[nH]c(CNc3cccc(F)c3)nc2-c2ccc3ncnn3c2)n1` [Example 5, N-((4-([1,2,4]triazolo[1,5-a]pyridin-6-yl)-5-(6-methylpyridin-2-yl)-1H-imidazol-2-yl)methyl)-3-fluoroaniline], the figure is 8.03.
In the case of `Cc1cccc(-c2[nH]c(CNc3ccccc3Cl)nc2-c2ccc3ncnn3c2)n1` [Example 10, N-((4-([1,2,4]triazolo[1,5-a]pyridin-6-yl)-5-(6-methylpyridin-2-yl)-1H-imidazol-2-yl)methyl)-2-chloroaniline], the pIC50 was 8.03.
For the compound `Cc1cccc(-c2[nH]c(CNc3cccc(F)c3F)nc2-c2ccc3ncnn3c2)n1` [Example 7, N-((4-([1,2,4]triazolo[1,5-a]pyridin-6-yl)-5-(6-methylpyridin-2-yl)-1H-imidazol-2-yl)methyl)-2,3-difluoroaniline], the negative logarithm of the IC50 (pIC50) was 8.05.
As for `Cc1cccc(-c2[nH]c(CNc3ccc(C)c(C)c3)nc2-c2ccc3ncnn3c2)n1` [Example 28, N-((4-([1,2,4]triazolo[1,5-a]pyridin-6-yl)-5-(6-methylpyridin-2-yl)-1H-imidazol-2-yl)methyl)-3,4-dimethylaniline], the figure is 7.76.
Turning to `C=Cc1ccc(NCc2nc(-c3ccc4ncnn4c3)c(-c3cccc(C)n3)[nH]2)cc1` [Example 40, N-((4-([1,2,4]triazolo[1,5-a]pyridin-6-yl)-5-(6-methylpyridin-2-yl)-1H-imidazol-2-yl)methyl)-4-vinylaniline], the negative logarithm of the IC50 (pIC50) was 7.53.
Consider `Cc1cccc(-c2[nH]c(CNc3cccc(C(C)C)c3)nc2-c2ccc3ncnn3c2)n1` [Example 34, N-((4-([1,2,4]triazolo[1,5-a]pyridin-6-yl)-5-(6-methylpyridin-2-yl)-1H-imidazol-2-yl)methyl)-3-isopropylaniline], for which the negative logarithm of the IC50 (pIC50) is 7.79.
Regarding `Cc1cccc(-c2[nH]c(CNc3cccc(Cl)c3Cl)nc2-c2ccc3ncnn3c2)n1` [Example 15, N-((4-([1,2,4]triazolo[1,5-a]pyridin-6-yl)-5-(6-methylpyridin-2-yl)-1H-imidazol-2-yl)methyl)-2,3-dichloroaniline], the pIC50 is 7.91.
Take `Cc1cccc(-c2[nH]c(CNc3ccc(C#N)cc3)nc2-c2ccc3ncnn3c2)n1` [Example 63, 4-((4-([1,2,4]triazolo[1,5-a]pyridin-6-yl)-5-(6-methylpyridin-2-yl)-1H-imidazol-2-yl)methylamino)benzonitrile]: the pIC50 is 7.49.
To `Cc1cccc(-c2[nH]c(Cc3cccc(C(N)=O)c3)nc2-c2ccc3ncnn3c2)n1` [Example 147, 3-((4-([1,2,4]triazolo[1,5-a]pyridin-6-yl)-5-(6-methylpyridin-2-yl)-1H-imidazol-2-yl)methyl)benzamide] belongs 7.40.
With `CSc1ccc(NCc2nc(-c3ccc4ncnn4c3)c(-c3cccc(C)n3)[nH]2)cc1` [Example 58, N-((4-([1,2,4]triazolo[1,5-a]pyridin-6-yl)-5-(6-methylpyridin-2-yl)-1H-imidazol-2-yl)methyl)-4-(methylthio)aniline], the negative-log IC50 (pIC50) was 7.40.
As for `Cc1cccc(-c2[nH]c(CNc3ccc(OC(F)(F)F)cc3)nc2-c2ccc3ncnn3c2)n1` [Example 53, N-((4-([1,2,4]triazolo[1,5-a]pyridin-6-yl)-5-(6-methylpyridin-2-yl)-1H-imidazol-2-yl)methyl)-4-(trifluoromethoxy)aniline], the pIC50 was 7.22.
As for `Cc1cccc(-c2[nH]c(COc3cccc(C(N)=O)c3)nc2-c2ccc3ncnn3c2)n1` [Example 151, 3-((4-([1,2,4]triazolo[1,5-a]pyridin-6-yl)-5-(6-methylpyridin-2-yl)-1H-imidazol-2-yl)methoxy)benzamide], the figure is 7.65.
As for `CCc1ccccc1NCc1nc(-c2ccc3ncnn3c2)c(-c2cccc(C)n2)[nH]1` [Example 30, N-((4-([1,2,4]triazolo[1,5-a]pyridin-6-yl)-5-(6-methylpyridin-2-yl)-1H-imidazol-2-yl)methyl)-2-ethylaniline], the figure is 7.97; as for `Cc1cc(C)cc(NCc2nc(-c3ccc4ncnn4c3)c(-c3cccc(C)n3)[nH]2)c1` [Example 29, N-((4-([1,2,4]triazolo[1,5-a]pyridin-6-yl)-5-(6-methylpyridin-2-yl)-1H-imidazol-2-yl)methyl)-3,5-dimethylaniline], 7.84.
On to `CSc1cccc(NCc2nc(-c3ccc4ncnn4c3)c(-c3cccc(C)n3)[nH]2)c1` [Example 55, N-((4-([1,2,4]triazolo[1,5-a]pyridin-6-yl)-5-(6-methylpyridin-2-yl)-1H-imidazol-2-yl)methyl)-3-(methylthio)aniline], for which the pIC50 is 8.17.
For the compound `CSc1ccccc1NCc1nc(-c2ccc3ncnn3c2)c(-c2cccc(C)n2)[nH]1` [Example 54, N-((4-([1,2,4]triazolo[1,5-a]pyridin-6-yl)-5-(6-methylpyridin-2-yl)-1H-imidazol-2-yl)methyl)-2-(methylthio)aniline], the negative logarithm of the IC50 (pIC50) was 8.00.
To `Cc1ccc(NCc2nc(-c3ccc4ncnn4c3)c(-c3cccc(C)n3)[nH]2)cc1` [Example 26, N-((4-([1,2,4]triazolo[1,5-a]pyridin-6-yl)-5-(6-methylpyridin-2-yl)-1H-imidazol-2-yl)methyl)-4-methylaniline] belongs 7.81; to `Cc1cccc(-c2[nH]c(CNc3cccc(CC#N)c3)nc2-c2ccc3ncnn3c2)n1` [Example 68, 2-(3-((4-([1,2,4]triazolo[1,5-a]pyridin-6-yl)-5-(6-methylpyridin-2-yl)-1H-imidazol-2-yl)methylamino)phenyl)acetonitrile], 7.96; to `C=Cc1cccc(NCc2nc(-c3ccc4ncnn4c3)c(-c3cccc(C)n3)[nH]2)c1` [Example 37, N-((4-([1,2,4]triazolo[1,5-a]pyridin-6-yl)-5-(6-methylpyridin-2-yl)-1H-imidazol-2-yl)methyl)-3-vinylaniline], 7.92.
As to `COC(=O)c1cccc(NCc2nc(-c3ccc4ncnn4c3)c(-c3cccc(C)n3)[nH]2)c1` [Example 72, Methyl 3-((4-([1,2,4]triazolo[1,5-a]pyridin-6-yl)-5-(6-methylpyridin-2-yl)-1H-imidazol-2-yl)methylamino)benzoate], the pIC50 is 7.78.
Consider `Cc1cccc(-c2[nH]c(CNc3cccc(Br)c3)nc2-c2ccc3ncnn3c2)n1` [Example 20, N-((4-([1,2,4]triazolo[1,5-a]pyridin-6-yl)-5-(6-methylpyridin-2-yl)-1H-imidazol-2-yl)methyl)-3-bromoaniline], for which the negative-log IC50 (pIC50) is 8.34.
In the case of `Cc1cccc(-c2[nH]c(CNc3cccc(C)c3C)nc2-c2ccc3ncnn3c2)n1` [Example 27, N-((4-([1,2,4]triazolo[1,5-a]pyridin-6-yl)-5-(6-methylpyridin-2-yl)-1H-imidazol-2-yl)methyl)-2,3-dimethylaniline], the pIC50 was 7.74.
`Cc1cccc(-c2[nH]c(CNc3ccccc3NS(C)(=O)=O)nc2-c2ccc3ncnn3c2)n1` [Example 77, N-(2-((4-([1,2,4]triazolo[1,5-a]pyridin-6-yl)-5-(6-methylpyridin-2-yl)-1H-imidazol-2-yl)methylamino)phenyl)methanesulfonamide]: the pIC50 is 7.82.
To `Cc1cccc(-c2[nH]c(CSc3ccccc3)nc2-c2ccc3ncnn3c2)n1` [Example 152, 6-(5-(6-methylpyridin-2-yl)-2-(phenylthiomethyl)-1H-imidazol-4-yl)-[1,2,4]triazolo[1,5-a]pyridine] belongs 7.68.
To `CC(=O)c1ccc(NCc2nc(-c3ccc4ncnn4c3)c(-c3cccc(C)n3)[nH]2)cc1` [Example 71, 1-(4-((4-([1,2,4]triazolo[1,5-a]pyridin-6-yl)-5-(6-methylpyridin-2-yl)-1H-imidazol-2-yl)methylamino)phenyl)ethanone] belongs 7.23; to `Cc1cccc(-c2[nH]c(CNc3ccccc3OC(F)(F)F)nc2-c2ccc3ncnn3c2)n1` [Example 51, N-((4-([1,2,4]triazolo[1,5-a]pyridin-6-yl)-5-(6-methylpyridin-2-yl)-1H-imidazol-2-yl)methyl)-2-(trifluoromethoxy)aniline], 7.91.

These data come from patent USRE47141E1, “Methods of treating fibrosis, cancer and vascular injuries” (EWHA University—Industry Collaboration Foundation, priority 2010, dated 2018).
